Data reported in patent US11160770B2, “Compounds, compositions and methods for treating oxidative DNA damage disorders” (Indiana University Research and Technology Corporation, priority 2011, dated 2021).

target: redox function of APE1 (Homo sapiens, UniProt P27695); experiment: Redox EMSA Assay; assay type: biochemical; conditions: 0.02 mM DTT
Procedure: EXAMPLE. Redox EMSA Assay. Conventional electrophoresis measuring Ape1 […] with 0.02 mM DTT is used to evaluate test compounds. Additional details are described in Fishel et al. Mol Cancer Ther. 2011 September; 10(9):1698-708 & Luo et al., Antioxid Redox Signal. 2008 November; 10(11):1853-67. […]

redox function of APE1, sequence (P27695 whole entry): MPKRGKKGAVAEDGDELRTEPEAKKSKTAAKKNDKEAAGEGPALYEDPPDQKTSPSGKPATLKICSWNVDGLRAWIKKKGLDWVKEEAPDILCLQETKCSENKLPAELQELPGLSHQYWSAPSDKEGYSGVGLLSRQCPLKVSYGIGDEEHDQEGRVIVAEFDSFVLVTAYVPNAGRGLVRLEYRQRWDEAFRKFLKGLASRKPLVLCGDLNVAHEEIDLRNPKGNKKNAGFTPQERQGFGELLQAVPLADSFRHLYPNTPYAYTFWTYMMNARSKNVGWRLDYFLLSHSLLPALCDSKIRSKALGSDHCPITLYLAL

| IC50 | Compound |
| --- | --- |
| 15 µM | CCCCCCCCC/C(=C\C1=C(C)C(=O)C(OC)=C(OC)C1=O)C(=O)N(C)CC(O)C(O)C(O)C(O)CO (stereo not drawn) [Example 30] |
| > 10 µM | CCC/C(=C\C1=C(O)C(=O)c2ccccc2C1=O)C(=O)O [Example 24] |
| 2.5 µM | CCC/C(=C\C1=C(Cl)C(=O)c2ccccc2C1=O)C(=O)N(CC)CC [Example 23] |
| 17 µM | CCCCCCCCC/C(=C\C1=C(C)C(=O)C(OC)=C(OC)C1=O)C(=O)NOC [Example 29] |
| 0.5 µM | CCCC/C(=C\C1=C(OC)C(=O)c2ccccc2C1=O)C(=O)O [Example 33] |
| 47 to 52 µM | CCCC/C(=C\C1=C(C)C(=O)c2ccccc2C1=O)C(=O)O [Example 32] |
| 2.6 µM | CCCC(=CC1=C(OC)C(=O)c2ccccc2C1=O)C(=O)N(C)C [Example 26] |
| 13 µM | CCCC(=CC1=C(OC)C(=O)c2ccccc2C1=O)C(=O)N(CC)CC [Example 25] |
| 24 µM | CCCC/C(=C\C1=C(C)C(=O)C(OC)=C(OC)C1=O)C(=O)N(C)OC [Example 31] |
| < 2.5 µM | CCC/C(=C\C1=C(Cl)C(=O)c2ccccc2C1=O)C(=O)NOC [Example 22] |
| 40 µM | CCCC/C(=C/C1=C(C)C(=O)c2ccccc2C1=O)C(=O)NCCOC [Example 21] |

More lines, now with the values behind:

| Compound | IC50 |
| --- | --- |
| CCCC/C(=C\C1=C(C)C(=O)c2ccccc2C1=O)C(=O)N1CCNC(=O)C1 [Example 15] | 23 µM |
| CCCC/C(=C\C1=C(C)C(=O)c2ccccc2C1=O)C(=O)NC1CCCCC1 [Example 14] | 98 µM |
| CCCC/C(=C\C1=C(C)C(=O)c2ccccc2C1=O)C(=O)N1CCOCC1 [Example 18] | 34 µM |
| CCCC/C(=C\C1=C(C)C(=O)c2ccccc2C1=O)C(=O)N(CC)CC [Example 9] | 120 µM |
| CCC/C(=C\C1=C(OC)C(=O)c2ccccc2C1=O)C(=O)N(C)C [Example 2] | 2.3 µM |
| CCC/C(=C\C1=C(OC)C(=O)c2ccccc2C1=O)C(=O)N(CC)CC [Example 5] | < 1 µM |
| CCCC/C(=C\C1=C(C)C(=O)c2ccccc2C1=O)C(=O)NC1CC1 [Example 11] | 14 µM |
| CCCC/C(=C/C1=C(C)C(=O)c2ccccc2C1=O)C(=O)N1CCOCC1 [Example 17] | 25 µM |
| CCCC/C(=C\C1=C(C)C(=O)c2ccccc2C1=O)C(=O)NC [Example 6] | 17 µM |
| CCCC/C(=C\C1=C(C)C(=O)c2ccccc2C1=O)C(=O)N(C)C [Example 7] | 23 µM |
| CCCC/C(=C\C1=C(OC)C(=O)c2ccccc2C1=O)C(=O)NOC [Example 10] | < 1 µM |
| CCCC/C(=C\C1=C(C)C(=O)c2ccccc2C1=O)C(=O)N(C)OC [Example 16] | 26 µM |
| CCC/C(=C\C1=C(OC)C(=O)c2ccccc2C1=O)C(=O)NC [Example 1] | 6.2 µM |
| CCC/C(=C\C1=C(OC)C(=O)c2ccccc2C1=O)C(=O)NCC [Example 3] | 3.3 µM |
| CCCC/C(=C\C1=C(C)C(=O)c2ccccc2C1=O)C(=O)NCCOC [Example 20] | 94 µM |
| CCCC/C(=C\C1=C(C)C(=O)c2ccccc2C1=O)C(=O)NCC [Example 8] | 20 µM |
